{"source": "patent US4108991A", "about": "“N-aminosulfenyl derivatives of aldicarb” (priority 1976, dated 1978)", "key": {"Mexican bean beetle [1]": {"system": "Mexican bean beetle", "assay": "Systemic activity, soil-watering, Mexican bean beetle", "assay_type": "in vivo, Epilachna varivestis Muls.", "conditions": "Epilachna varivestis, 48 h, systemic, BB, read-out: Percent Kill", "experimental": "(§1) Initial Contact Activity: One half gram of test compound was dissolved in 40 ml of acetone and this solution was dispersed in 360 ml of water containing one drop of isooctylphenyl polyethoxyethanol. Aliquots of this solution, which corresponds to 1250 ppm of active ingredient, were diluted with an appropriate amount of water to provide solutions containing various concentrations of active ingredient. Test organisms and techniques were as follows: The activity against the Mexican bean beetle (Epilachna varivestis Muls.) and the southern armyworm (Spodoptera eridania [Cram.]) was evaluated by dipping the leaves of pinto bean plants into the test solution and infesting the leaves with the appropriate immature-form insects when the foiliage had dried; the activity against the pea aphid (Acyrthosiphon pisum [Harris]) was evaluated on broad bean plants whose leaves were dipped before infestation with adult aphids; the activity against two-sotted spider mites (Tetranychus urticae Koch) was evaluated on pinto bean plants whose leaves were dipped after infestation with adult mites; the activity against the milkweed bug (Oncopeltus fasciatus [Dallas]), and the plum curculio (Conotrachelus nenuphar [Herbst]) was evaluated by spraying the test solutions into glass dishes or jars containing the adult insects; the activity against the confused flour beetle (Tribolium confusum duVal) was evaluated by introducing the insects into glass dishes which had been previously sprayed with test solution and allowed to dry. All organisms in the test were maintained in a holding room at 80° F and 50% relative humidity for an exposure period of 48 hours. At the end of this time, the dead and living insects or mites were counted, and the percent kill was calculated.\n(§2) Systemic Activity: Systemic activity was measured using a soil-watering technique. Test organisms were Mexican bean beetle, southern armyworm, pea aphid, and mites on plants as described above in this Example. With appropriate precautions to avoid contact of the solution with the test plant surfaces, 25 ml of a test solution, prepared as above to contain the desired amount of active ingredient, were poured evenly over the surface of the soil in which the plant was growing. The treated plants were maintained under normal growing conditions for three days to permit translocation of the toxicant, after which the leaves were infested. Two days after infestation, counts of living and dead insects were made."}, "Southern armyworm [2]": {"system": "Southern armyworm", "assay": "Systemic activity, soil-watering, southern armyworm", "assay_type": "in vivo, Spodoptera eridania [Cram.]", "conditions": "Spodoptera eridania, 48 h, systemic, AW, read-out: Percent Kill", "experimental": "as §1, §2"}, "Confused flour beetle [3]": {"system": "Confused flour beetle", "assay": "Residual (7-day) contact activity, confused flour beetle", "assay_type": "in vivo, Tribolium confusum duVal", "conditions": "Tribolium confusum, 168 h, residual 7-day, FB, read-out: Percent Kill", "experimental": "as §1\n(§3) Residual Contact Activity: The residual contact activity of the compounds was determined on the same organisms using the techniques described above, except that in each case the treated surface was allowed to dry and was exposed to normal light and air for seven days before introduction of the mites or insects."}, "Southern armyworm [4]": {"system": "Southern armyworm", "assay": "Initial contact activity, leaf dip, southern armyworm", "assay_type": "in vivo, Spodoptera eridania [Cram.]", "conditions": "Spodoptera eridania, foliar, 48 h, initial, AW, 48 hours, read-out: Percent Kill", "experimental": "as §1"}, "Two-spotted spider mite [5]": {"system": "Two-spotted spider mite", "assay": "Systemic activity, soil-watering, two-spotted spider mite", "assay_type": "in vivo, Tetranychus urticae Koch", "conditions": "Tetranychus urticae, 48 h, systemic, SM, read-out: Percent Kill", "experimental": "as §1, §2"}, "Mexican bean beetle [6]": {"system": "Mexican bean beetle", "assay": "Residual (7-day) contact activity, Mexican bean beetle", "assay_type": "in vivo, Epilachna varivestis Muls.", "conditions": "Epilachna varivestis, 168 h, residual 7-day, BB, read-out: Percent Kill", "experimental": "as §1, §3"}, "Mexican bean beetle [7]": {"system": "Mexican bean beetle", "assay": "Initial contact activity, leaf dip, Mexican bean beetle", "assay_type": "in vivo, Epilachna varivestis Muls.", "conditions": "Epilachna varivestis, foliar, 48 h, initial, BB, 48 hours, read-out: Percent Kill", "experimental": "as §1"}, "Confused flour beetle [8]": {"system": "Confused flour beetle", "assay": "Initial contact activity, sprayed dishes, confused flour beetle", "assay_type": "in vivo, Tribolium confusum duVal", "conditions": "Tribolium confusum, initial, FB, 48 hours, read-out: Percent Kill", "experimental": "as §1"}, "Milkweed bug [9]": {"system": "Milkweed bug", "assay": "Initial contact activity, spray, milkweed bug", "assay_type": "in vivo, Oncopeltus fasciatus [Dallas]", "conditions": "Oncopeltus fasciatus, 48 h, initial, MWB, 48 hours, read-out: Percent Kill", "experimental": "as §1"}, "Pea aphid [10]": {"system": "Pea aphid", "assay": "Initial contact activity, leaf dip, pea aphid", "assay_type": "in vivo, Acyrthosiphon pisum [Harris]", "conditions": "Acyrthosiphon pisum, foliar, 48 h, initial, PA, 48 hours, read-out: Percent Kill", "experimental": "as §1"}, "Milkweed bug [11]": {"system": "Milkweed bug", "assay": "Residual (7-day) contact activity, milkweed bug", "assay_type": "in vivo, Oncopeltus fasciatus [Dallas]", "conditions": "Oncopeltus fasciatus, 168 h, residual 7-day, MWB, read-out: Percent Kill", "experimental": "as §1, §3"}, "Two-spotted spider mite [12]": {"system": "Two-spotted spider mite", "assay": "Residual (7-day) contact activity, two-spotted spider mite", "assay_type": "in vivo, Tetranychus urticae Koch", "conditions": "Tetranychus urticae, 168 h, residual 7-day, SM, read-out: Percent Kill", "experimental": "as §1, §3"}, "Granary Weevil [13]": {"system": "Granary Weevil", "assay": "Initial contact activity, granary weevil", "assay_type": "in vivo", "conditions": "Sitophilus granarius, 48 h, initial, GW, 48 hours, read-out: Percent Kill"}, "Pea aphid [14]": {"system": "Pea aphid", "assay": "Residual (7-day) contact activity, pea aphid", "assay_type": "in vivo, Acyrthosiphon pisum [Harris]", "conditions": "Acyrthosiphon pisum, 168 h, residual 7-day, PA, read-out: Percent Kill", "experimental": "as §1, §3"}, "Granary Weevil [15]": {"system": "Granary Weevil", "assay": "Residual (7-day) contact activity, granary weevil", "assay_type": "in vivo", "conditions": "Sitophilus granarius, 168 h, residual 7-day, GW, read-out: Percent Kill"}}}
{"smiles": "CSC(C)(C)C=NOC(=O)N(C)SN(C)Cc1ccccc1", "note": "[Example I, 2-methyl-2-(methylthio)propanol O-[(N-benzyl-N-methylaminosulfenyl)(methyl)carbamoyl]oxime]", "values": [{"measurement": "mortality at 39 ppm", "setting": "Mexican bean beetle [1]; 39 PPM", "value": 0, "unit": "%"}, {"measurement": "mortality at 156 ppm", "setting": "Mexican bean beetle [1]; 156 PPM", "value": 75, "unit": "%"}, {"measurement": "mortality at 312 ppm", "setting": "Southern armyworm [2]; 312 PPM", "value": 50, "unit": "%"}, {"measurement": "mortality at 625 ppm", "setting": "Southern armyworm [2]; 625 PPM", "value": 84, "unit": "%"}, {"measurement": "mortality at 312 ppm", "setting": "Confused flour beetle [3]; 312 PPM", "value": 0, "unit": "%"}, {"measurement": "mortality at 1250 ppm", "setting": "Confused flour beetle [3]; 1250 PPM", "value": 2.6, "unit": "%"}, {"measurement": "mortality at 156 ppm", "setting": "Southern armyworm [4]; 156 PPM", "value": 0, "unit": "%"}, {"measurement": "mortality at 312 ppm", "setting": "Southern armyworm [4]; 312 PPM", "value": 24, "unit": "%"}, {"measurement": "mortality at 625 ppm", "setting": "Southern armyworm [4]; 625 PPM", "value": 25, "unit": "%"}, {"measurement": "mortality at 1250 ppm", "setting": "Southern armyworm [4]; 1250 PPM", "value": 33, "unit": "%"}, {"measurement": "mortality at 2.5 ppm", "setting": "Two-spotted spider mite [5]; 2.5 PPM", "value": 0.9, "unit": "%"}, {"measurement": "mortality at 5 ppm", "setting": "Two-spotted spider mite [5]; 5 PPM", "value": 2.3, "unit": "%"}, {"measurement": "mortality at 10 ppm", "setting": "Two-spotted spider mite [5]; 10 PPM", "value": 4.3, "unit": "%"}, {"measurement": "mortality at 312 ppm", "setting": "Mexican bean beetle [6]; 312 PPM", "value": 0, "unit": "%"}, {"measurement": "mortality at 1250 ppm", "setting": "Mexican bean beetle [6]; 1250 PPM", "value": 89, "unit": "%"}, {"measurement": "mortality at 156 ppm", "setting": "Mexican bean beetle [7]; 156 PPM", "value": 82, "unit": "%"}, {"measurement": "mortality at 312 ppm", "setting": "Mexican bean beetle [7]; 312 PPM", "value": 94, "unit": "%"}, {"measurement": "mortality at 625 ppm", "setting": "Mexican bean beetle [7]; 625 PPM", "value": 100, "unit": "%"}, {"measurement": "mortality at 1250 ppm", "setting": "Mexican bean beetle [7]; 1250 PPM", "value": 100, "unit": "%"}, {"measurement": "mortality at 156 ppm", "setting": "Confused flour beetle [8]; 156 PPM", "value": 5, "unit": "%"}, {"measurement": "mortality at 312 ppm", "setting": "Confused flour beetle [8]; 312 PPM", "value": 5, "unit": "%"}, {"measurement": "mortality at 1250 ppm", "setting": "Confused flour beetle [8]; 1250 PPM", "value": 2.5, "unit": "%"}, {"measurement": "mortality at 10 ppm", "setting": "Milkweed bug [9]; 10 PPM", "value": 5, "unit": "%"}, {"measurement": "mortality at 39 ppm", "setting": "Milkweed bug [9]; 39 PPM", "value": 80, "unit": "%"}, {"measurement": "mortality at 156 ppm", "setting": "Milkweed bug [9]; 156 PPM", "value": 100, "unit": "%"}, {"measurement": "mortality at 1250 ppm", "setting": "Milkweed bug [9]; 1250 PPM", "value": 100, "unit": "%"}, {"measurement": "mortality at 10 ppm", "setting": "Pea aphid [10]; 10 PPM", "value": 20, "unit": "%"}, {"measurement": "mortality at 39 ppm", "setting": "Pea aphid [10]; 39 PPM", "value": 62, "unit": "%"}, {"measurement": "mortality at 156 ppm", "setting": "Pea aphid [10]; 156 PPM", "value": 100, "unit": "%"}, {"measurement": "mortality at 1250 ppm", "setting": "Pea aphid [10]; 1250 PPM", "value": 100, "unit": "%"}, {"measurement": "mortality at 156 ppm", "setting": "Milkweed bug [11]; 156 PPM", "value": 90, "unit": "%"}, {"measurement": "mortality at 312 ppm", "setting": "Milkweed bug [11]; 312 PPM", "value": 95, "unit": "%"}, {"measurement": "mortality at 1250 ppm", "setting": "Milkweed bug [11]; 1250 PPM", "value": 100, "unit": "%"}, {"measurement": "mortality at 156 ppm", "setting": "Two-spotted spider mite [12]; 156 PPM", "value": 3.2, "unit": "%"}, {"measurement": "mortality at 312 ppm", "setting": "Two-spotted spider mite [12]; 312 PPM", "value": 63, "unit": "%"}, {"measurement": "mortality at 1250 ppm", "setting": "Two-spotted spider mite [12]; 1250 PPM", "value": 99.5, "unit": "%"}, {"measurement": "mortality at 156 ppm", "setting": "Granary Weevil [13]; 156 PPM", "value": 100, "unit": "%"}, {"measurement": "mortality at 312 ppm", "setting": "Granary Weevil [13]; 312 PPM", "value": 100, "unit": "%"}, {"measurement": "mortality at 1250 ppm", "setting": "Granary Weevil [13]; 1250 PPM", "value": 100, "unit": "%"}, {"measurement": "mortality at 156 ppm", "setting": "Pea aphid [14]; 156 PPM", "value": 0, "unit": "%"}, {"measurement": "mortality at 312 ppm", "setting": "Pea aphid [14]; 312 PPM", "value": 6.3, "unit": "%"}, {"measurement": "mortality at 1250 ppm", "setting": "Pea aphid [14]; 1250 PPM", "value": 100, "unit": "%"}, {"measurement": "mortality at 312 ppm", "setting": "Granary Weevil [15]; 312 PPM", "value": 41, "unit": "%"}, {"measurement": "mortality at 1250 ppm", "setting": "Granary Weevil [15]; 1250 PPM", "value": 100, "unit": "%"}]}
